Read-outs that look alike come from different tables or passages of the source.
Experiments:
[1] = compared to tamoxifen; cited from earlier work
estrogen receptor [2] = target: T1, estrogen receptor (Homo sapiens, UniProt P03372); details: cited from earlier work; for Estrogen receptor binding / detection potency (in words): compared to tamoxifen
T1 sequence (P03372 1-595): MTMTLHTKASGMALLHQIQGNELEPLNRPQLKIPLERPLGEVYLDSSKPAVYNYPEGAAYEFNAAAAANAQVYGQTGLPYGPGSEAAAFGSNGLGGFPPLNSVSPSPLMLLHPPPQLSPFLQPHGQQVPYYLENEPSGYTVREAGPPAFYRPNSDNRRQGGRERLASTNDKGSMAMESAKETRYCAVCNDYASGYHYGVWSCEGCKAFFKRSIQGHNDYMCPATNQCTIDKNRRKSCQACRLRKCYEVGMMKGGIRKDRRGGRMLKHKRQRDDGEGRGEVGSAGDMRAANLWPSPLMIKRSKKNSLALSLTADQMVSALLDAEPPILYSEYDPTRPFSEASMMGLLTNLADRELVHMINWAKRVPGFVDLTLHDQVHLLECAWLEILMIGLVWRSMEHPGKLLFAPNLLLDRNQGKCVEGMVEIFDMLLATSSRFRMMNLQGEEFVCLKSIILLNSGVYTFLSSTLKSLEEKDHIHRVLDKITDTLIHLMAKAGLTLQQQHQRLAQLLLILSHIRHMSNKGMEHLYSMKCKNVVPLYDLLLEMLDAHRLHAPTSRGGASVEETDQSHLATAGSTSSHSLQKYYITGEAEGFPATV

estrogen receptor [3] = target: T2, estrogen receptor (Sus scrofa, UniProt Q29040); details: for RBA (IC50 ratio between tamoxifen and competitor): Table 7, tamoxifen printed as 1; for Enhancement of estrogen receptor binding affinity: compared to tamoxifen
T2 sequence (Q29040 1-595): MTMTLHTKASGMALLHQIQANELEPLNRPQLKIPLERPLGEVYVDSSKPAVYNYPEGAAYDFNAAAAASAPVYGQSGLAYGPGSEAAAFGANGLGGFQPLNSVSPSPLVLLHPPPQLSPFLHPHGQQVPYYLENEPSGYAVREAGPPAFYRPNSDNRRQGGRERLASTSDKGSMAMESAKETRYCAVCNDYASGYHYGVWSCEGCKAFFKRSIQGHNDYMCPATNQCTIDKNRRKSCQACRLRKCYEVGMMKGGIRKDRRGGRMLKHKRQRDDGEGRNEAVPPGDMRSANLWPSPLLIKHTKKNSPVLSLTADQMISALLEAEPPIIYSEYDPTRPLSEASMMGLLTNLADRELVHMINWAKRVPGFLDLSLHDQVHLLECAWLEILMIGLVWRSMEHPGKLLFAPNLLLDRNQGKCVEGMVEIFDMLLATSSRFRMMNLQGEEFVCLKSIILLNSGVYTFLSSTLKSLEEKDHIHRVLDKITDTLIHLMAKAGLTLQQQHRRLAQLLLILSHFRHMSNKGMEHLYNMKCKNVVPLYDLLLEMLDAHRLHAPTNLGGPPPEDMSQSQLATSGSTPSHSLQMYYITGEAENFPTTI
Description: (§1) A previously reported procedure was modified by the inventors and used for this purpose.^10,11 TEA buffer was used by the Inventors for tissue preparation.
(§2) Briefly, uteri (90 gm) were obtained from immature domestic swine (15 kg) was homogenized in Tris buffer (10 mM, pH 7.4) (1 uterus/180 ml), which contained EDTA (1.5 mM) and sodium Azide (3 mM). The homogenate was centrifuged at 100,000 g for 1 hour at 4° C. Uteri cytosol (contains 2% of protein from corresponding uterus tissue) were then pretreated with dextran-coated charcoal as described.^10 Protein concentrations were determined according to the method of Lowry et al.^12
(§3) *The relative binding affinity (RBA) for the pig uteri estrogen receptor

in vivo = experiment: in vivo; set-up: species or system rat; details: compared with DTPA-Tamoxifen and DTPA-Vitamin A conjugates
Description: In animal tissue distribution studies, each rate was given 8.9 μCi (0.15 ml) tracer intravenously. The tumor-bearing rats were killed at 1, 3, 6 and 24 h. […] The amount of DES given should occupy tumor estrogen receptor sites. The methods for inducing tumors in rats was as described by those of skill in the art (radiology). […]
Female Fisher 344 rats (250-275 g) (Harlan, Inc., Indianapolis, Ind.) were inoculated with mammary tumor cells using the 13762 tumor cell line (s.c. 10^5 cells/rat). After 14 days, a tumor size of 1-2 cm was observed. For ^131 I-ITX studies, five groups of rats (N=3/group) were anesthetized with ketamine (10-15 mg/rat). The trans ^131 I-ITX was given to four of the five groups (8.9 μCi/rat, i.v.) and biodistribution was studied at 1, 3, 6 and 24 h intervals. In blocking studies, the fifth group of rats was given diethylstilbestrol (DES) (1.2 mg/rat) for 1 h, followed by 8.9 μCi of ^131 I-ITX; biodistribution was studied 6 h later. The tissues were collected at different time intervals. The tissues were weighted and counted for radioactivity. The percent of injected dose per gram of tissue weight was calculated. […]

MCF7 cells = experiment: MCF7 breast tumor cell growth inhibition, 72 h, MTT tetrazolium dye assay; format: cell-based, human; details: for Potency against MCF7 compared with tamoxifen / Tumor cell inhibition (in words): 72 h; for RP (relative potency): tamoxifen = 100
Description: The MCF7 cell line is a human tumor cell line. This cell line was cultured in MEM (Eagles) media in a 5% CO^2 atmosphere with 10% fetal calf serum that had been washed twice with dextran coated charcoal to reduce endogenous estrogen levels. The media was supplemented with 1 mM sodium pyruvate and 100 μm non-essential amino acids. The cell line was screened routinely for myoplasma contamination using the GenProbe kit (Fisher). Cells were trypsinized and plated at a density of 5,000 cells/well in 96 well microtiter plates and allowed to attach and recover for 24 hours.
The media was removed by aspiration and replaced with filter sterilized drug (concentration from 10^-4 M to 10^-5 M) in media. The cells were incubated for 72 hours and then stained using the mTT tetrazolium dye assay of Mosmann^36 except that after the media was removed, the blue formazan product was solubilized in 50 μl/well DMSO.

[4] = Acute/immediate toxicity following i.v. injection in BALB/c mice; details: for Mice died: 20 mg/kg i.v.; for MTD / Maximum dose tolerated: mouse, in vivo, iv
Description: Acute toxicity studies were performed in BALB/c female mice with doses tested at 20, 50 and 200 mg/kg (i.v., n=5 mice per dose).

[5] = In vivo tissue uptake in rat (% injected dose per organ, n=5)
estrogen receptor [6] = target: T2, estrogen receptor; experiment: biochemical
Description: as §1, §2, §3

With CC/C(=C(\c1ccc(C)cc1)c1ccc(OCCN(C)C)cc1)c1ccccc1 [Compound 4-methyl] as the compound, how does the “Anti-estrogenic / in vivo activity (in words)” value [1] read?
Its value is “lower anti-estrogenic activity than tamoxifen”.

And the “Estrogen receptor binding / detection potency (in words)” value (estrogen receptor [2])?
The value was “approximately equal activity for estrogen receptor binding affinity”.

What does the source list for CCN(CC)CCOc1ccc(/C(=C(/CCCBr)c2ccccc2)c2ccccc2)cc1 [(XI) BrM (trans), N,N-diethyl-bromomethyltamoxifen]?
RBA (IC50 ratio between tamoxifen and competitor) (estrogen receptor [3]): 150; Enhancement of estrogen receptor binding affinity (estrogen receptor [3]): 50 fold

With NCCc1ccc(NC(=O)CN(CCN(CCN(CC(=O)O)CC(=O)O)CC(=O)O)CC(=O)O)cc1 [DTPA, DTPAp-(amino ethyl) anilide, reference compound] as the compound, how does the “Blood clearance and tumor-to-tissue uptake ratios (in words)” value (in vivo) read?
Its value is “faster blood clearance and less tumor-to-tissue uptake ratios”.

Which “Potency against MCF7 compared with tamoxifen” value (MCF7 cells) does the source give for CCN(CC)CCOc1ccc(/C(=C(\CCCF)c2ccccc2)c2ccccc2)cc1 [VI (Cis), N,N-diethyl-fluoromethyltamoxifen] here?
Its value is 3 fold.

What about the “Tumor cell inhibition (in words)” value (MCF7 cells) of the same compound?
The value was “more potent than the trans isomers”.

With CC/C(=C(\c1ccc(OC)cc1)c1ccc(OCCN(C)C)cc1)c1ccccc1 [4-methoxy phenyl derivative] as the compound, how does the “Anti-estrogenic / in vivo activity (in words)” value [1] read?
The value was “about the same as native tamoxifen”.

Which Mice died [4] does the source give for CCN(CC)CCOc1ccc(/C(=C(/CCCI)c2ccccc2)c2ccccc2)cc1 [trans-ITX, iodotamoxifen] here?
The Mice died was 3/4.

And the Mice died ([4]; listed as trans ITX)?
The Mice died was 3 out of 4.

And the “Toxicity (in words)” value ([4]; i.v.)?
The value was “lethal effects of transITX were immediate”.

What about the MTD [4] of the same compound?
Its MTD is 8 mg/kg.

Which “Estrogen receptor binding / detection potency (in words)” value (estrogen receptor [2]) does the source give for CC/C(=C(\c1ccc(I)cc1)c1ccc(OCCN(C)C)cc1)c1ccccc1 [Compound 4-iodo] here?
The value was “greater potency than tamoxifen”.

Which “Tumor cell inhibition (in words)” value (MCF7 cells) does the source give for CCN(CC)CCOc1ccc(C(=C(CCCI)c2ccccc2)c2ccccc2)cc1 [Compound X, N,N-diethyl-iodomethyltamoxifen] here?
Its value is “effective as inhibiting a breast tumor cell line”.

Which “Estrogen receptor binding (in words)” value (estrogen receptor [3]; listed as Bromomethyl tamoxifen) does the source give for CCN(CC)CCOc1ccc(C(=C(CCCBr)c2ccccc2)c2ccccc2)cc1 [Compound XI, 1-[4-(2-Diethylaminoethoxy)phenyl]-1,2-diphenyl-5-bromo-1-entene] here?
The value was “binds to estrogen receptors with greater affinity than the other halogenated tamoxifen analogs tested”.

What about the “Estrogen receptor binding (in words)” value (estrogen receptor [3]; listed as bromomethyl-Tx) of the same compound?
Its value is “bind to estrogen receptors greater than other halogenated tamoxifens tested”.

What about the “Potency against MCF7 compared with tamoxifen” value (MCF7 cells) of the same compound?
The value was about 25 fold.

With fluorotamoxifen [trans^18 F-FTX] as the compound, how does the Maximum dose tolerated [4] read?
The Maximum dose tolerated was 200 mg/kg.

With CCN(CC)CCOc1ccc(/C(=C(/CCCO)c2ccccc2)c2ccccc2)cc1 [III (trans), N,N-diethyl-hydroxymethyltamoxifen] as the compound, how does the “RBA (relative binding affinity)” value (estrogen receptor [3]; tamoxifen = 100) read?
Its value is 400.

And the “RP (relative potency)” value (MCF7 cells)?
The value was 50.

With CCN(CC)CCOc1ccc(/C(=C(\CCCBr)c2ccccc2)c2ccccc2)cc1 [cis-BTX] as the compound, how does the MTD [4] read?
The MTD was 50 mg/kg.

For CC/C(=C(\c1ccc(O)cc1)c1ccc(OCCN(C)C)cc1)c1ccccc1 [4-hydroxytamoxifen], which “Anti-estrogenic / in vivo activity (in words)” value [1] is on record?
The value was “less effective than tamoxifen in vivo”.

What does the source list for CCN(CC)CCOc1ccc(/C(=C(\CCF)c2ccccc2)c2ccccc2)cc1 (single isomer, unassigned) [IV (Cis), N,N-diethyl-fluorotamoxifen]?
RBA (relative binding affinity) (estrogen receptor [3]; tamoxifen = 100): 100; Tumor cell inhibition (in words) (MCF7 cells): effective as inhibiting a breast tumor cell line; Tumor cell inhibition (in words) (MCF7 cells; listed as cis N,N-diethyl-fluoro): more potent than the trans isomers

Which MTD [4] does the source give for CCN(CC)CCOc1ccc(/C(=C(/CCCBr)c2ccccc2)c2ccccc2)cc1 [trans-BTX] here?
The MTD was 50 mg/kg.

With CCN(CC)CCOc1ccc(/C(=C(/CCCCl)c2ccccc2)c2ccccc2)cc1 [(XII) ClM (trans), N,N-diethyl-chloromethyltamoxifen] as the compound, how does the IC50 (estrogen receptor [3]; read-out: IC50 estrogen receptor binding, pig uterus, [3H]estradiol 5 nM) read?
Its IC50 is 0.4 µM.

With CCN(CC)CCOc1ccc(/C(=C(\CCCCl)c2ccccc2)c2ccccc2)cc1 [cis-CITX, chlorotamoxifen] as the compound, how does the MTD [4] read?
The MTD was 50 mg/kg.

Which MTD [4] does the source give for CCN(CC)CCOc1ccc(/C(=C(\CCCI)c2ccccc2)c2ccccc2)cc1 [cis-ITX, iodotamoxifen] here?
Its MTD is 50 mg/kg.

Which results are given for CC/C(=C(\c1ccc(F)cc1)c1ccc(OCCN(C)C)cc1)c1ccccc1 [Compound 4-fluoro]?
Anti-estrogenic / in vivo activity (in words) [1]: lower anti-estrogenic activity than tamoxifen; Estrogen receptor binding / detection potency (in words) (estrogen receptor [2]): approximately equal activity for estrogen receptor binding affinity

Which Uterus/muscle ratio ([5]; first value (3 h)) does the source give for CCN(CC)CCOc1ccc(/C(=C(/CCC[131I])c2ccccc2)c2ccccc2)cc1 [^131 I-IMTX (trans)] here?
The Uterus/muscle ratio was 11.0.

And the Uterus/muscle ratio ([5]; second value (6 h))?
The Uterus/muscle ratio was 7.6.

What about the Uterus/muscle ratio ([5]; third value (24 h)) of the same compound?
Its Uterus/muscle ratio is 3.6.

For CCN(CC)CCOc1ccc(/C(=C(/CCF)c2ccccc2)c2ccccc2)cc1 [IV (trans), N,N-diethyl-fluorotamoxifen], which “Enhancement of estrogen receptor binding affinity” value (estrogen receptor [3]) is on record?
The value was “two and a half times”.

With Fluorotamoxifen [(VII) FTX (Cis)] as the compound, how does the “RP (relative potency)” value (MCF7 cells) read?
The value was 224.

Which “RBA (relative binding affinity)” value (estrogen receptor [3]) does the source give for CCN(CC)CCOc1ccc(/C(=C(/CCCN=[N+]=[N-])c2ccccc2)c2ccccc2)cc1 [TX-N3 (trans), Tamoxifen Azide] here?
The value was 80.

And the IC50 (estrogen receptor [6])?
Its IC50 is 38 µM.

And the Ki (estrogen receptor [6])?
Its Ki is 18.7 µM.

For CCN(CC)CCOc1ccc(C(=C(CCCF)c2ccccc2)c2ccccc2)cc1 [Compound VI, N,N-diethyl-fluoromethyltamoxifen], which “Tumor cell inhibition (in words)” value (MCF7 cells) is on record?
The value was “effective as inhibiting a breast tumor cell line”.

Which Maximum dose tolerated [4] does the source give for fluorotamoxifen [cis-^18 F-FTX] here?
Its Maximum dose tolerated is 50 mg/kg.

With CC/C(=C(/c1ccccc1)c1ccc(OCCN2CC2)cc1)c1ccccc1 (single isomer, unassigned) [cis isomer of tamoxifen azizidine] as the compound, how does the “Decrease in estrogen receptor binding affinity” value (estrogen receptor [2]; versus trans isomer or native tamoxifen) read?
Its value is 50 fold.

Which results are given for CCN(CC)CCOc1ccc(/C(=C(\CCCI)c2ccccc2)c2ccccc2)cc1 [X (cis), N,N-diethyl-iodomethyltamoxifen]?
RBA (IC50 ratio between tamoxifen and competitor) (estrogen receptor [3]): 10; Enhancement of estrogen receptor binding affinity (estrogen receptor [3]): 10 fold; RBA (relative binding affinity) (estrogen receptor [3]; tamoxifen = 100): 1,000; Tumor cell inhibition (in words) (MCF7 cells): more potent than the trans isomers

For CCN(CC)CCOc1ccc(/C(=C(/CCCN)c2ccccc2)c2ccccc2)cc1 [TX-NH2 (trans), Amino Tamoxifen], which “RBA (relative binding affinity)” value (estrogen receptor [3]; tamoxifen = 100) is on record?
The value was 10.

And the IC50 (estrogen receptor [6])?
Its IC50 is 300 µM.

And the Ki (estrogen receptor [6])?
The Ki was 150 µM.

For CC/C(=C(\c1ccc(Cl)cc1)c1ccc(OCCN(C)C)cc1)c1ccccc1 [Compound 4-chloro], which “Anti-estrogenic / in vivo activity (in words)” value [1] is on record?
Its value is “lower anti-estrogenic activity than tamoxifen”.

What about the “Estrogen receptor binding / detection potency (in words)” value (estrogen receptor [2]) of the same compound?
Its value is “approximately equal activity for estrogen receptor binding affinity”.

Reference: patent publication US6096874A (Board of Regents, the University of Texas System, priority 1995, dated 2000)
